# pKi: −log10 of the molar value.
# Legend:
# [1] = test system: cells in tissue culture; conditions: cited from earlier work
# [2] = target: T1, ENT4 (Homo sapiens, UniProt Q7RTT9); conditions: cited from earlier work
# T1 sequence (Q7RTT9 1-530): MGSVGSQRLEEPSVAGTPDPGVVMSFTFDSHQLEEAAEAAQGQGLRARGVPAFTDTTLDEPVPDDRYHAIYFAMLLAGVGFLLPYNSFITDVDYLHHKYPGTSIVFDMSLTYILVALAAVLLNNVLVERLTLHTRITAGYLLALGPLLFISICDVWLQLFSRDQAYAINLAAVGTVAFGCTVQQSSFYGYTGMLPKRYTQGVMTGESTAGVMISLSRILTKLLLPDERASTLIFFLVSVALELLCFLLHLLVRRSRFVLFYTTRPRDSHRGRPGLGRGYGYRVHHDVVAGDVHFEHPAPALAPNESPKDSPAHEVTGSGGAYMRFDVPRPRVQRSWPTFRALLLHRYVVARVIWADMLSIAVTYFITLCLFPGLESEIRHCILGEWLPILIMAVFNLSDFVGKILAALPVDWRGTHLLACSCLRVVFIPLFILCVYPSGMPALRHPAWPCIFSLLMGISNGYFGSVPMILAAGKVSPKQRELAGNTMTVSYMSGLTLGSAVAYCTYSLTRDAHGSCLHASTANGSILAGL
# [3] = test system: ENT subtype equilibrative, insensitive (ei); conditions: low concentrations (e.g., <1 μM) of NBMPR; cited from earlier work
# [4] = target: T2, ENT2 (Homo sapiens, UniProt Q14542); experiment: Inhibition of ENT2 by NBMPR (Ward et al.); type: biochemical
# T2 sequence (Q14542 1-456): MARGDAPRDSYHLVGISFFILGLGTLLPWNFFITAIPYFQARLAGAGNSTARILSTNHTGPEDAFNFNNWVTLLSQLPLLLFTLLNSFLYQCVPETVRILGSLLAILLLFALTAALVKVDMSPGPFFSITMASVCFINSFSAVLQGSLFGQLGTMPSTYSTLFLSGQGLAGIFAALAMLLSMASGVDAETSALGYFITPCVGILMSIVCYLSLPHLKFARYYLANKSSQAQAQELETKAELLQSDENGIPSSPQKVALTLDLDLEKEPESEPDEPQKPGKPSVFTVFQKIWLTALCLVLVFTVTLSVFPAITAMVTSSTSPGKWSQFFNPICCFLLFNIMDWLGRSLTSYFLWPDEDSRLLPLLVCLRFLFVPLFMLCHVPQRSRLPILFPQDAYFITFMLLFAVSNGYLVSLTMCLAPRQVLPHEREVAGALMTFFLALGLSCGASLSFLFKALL
# [5] = target: T2, ENT2; conditions: read-out: Ki of NBMPR for ENT2; Ward et al., J. Biol. Chem. 2000; cited from earlier work
ENT2 activity ([4]; at 10 μM NBMPR),expected suppression of ENT2 activity ([4]; by 10 μM NBMPR) [%],Compound,harm to cells that it penetrates [1],inhibition of ENT4 by NBMPR [2],effect of NBMPR on the ei subtype [3],pKi [5]
–,–,"mAb 3E10: monoclonal anti-DNA antibody produced by hybridoma 3E10, ATCC accession number PTA-2439",no harm,–,–,–
retains moderate activity,> 50,"O=[N+]([O-])c1ccc(CSc2ncnc3c2ncn3C2OC(CO)C(O)C2O)cc1 (stereo not drawn) [NBMPR, Nitrobenzylmercaptopurine riboside]",–,weakly inhibited,unaffected,5.55

# — patent US10702543B2, “Intranuclear protein transduction through a nucleoside salvage pathway” (The United States Government as represented by The …, priority 2007, dated 2020)
